Patent publication US10405547B2, “Substituted cyclic amides as herbicides” (FMC Corporation, priority 2015, dated 2019)

Tests used:
Assay type in all cases: in vivo
[1] = test system: barnyardgrass (Echinochloa crus-galli); experiment: Test A preemergence, barnyardgrass; conditions: 0 to 100 scale (0 no effect, 100 complete control)
Summary of the method: (§1)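 Visual injury on a 0 to 100 scale, about 10 days post-spray in the greenhouse. Postemergence plants measured 2–10 cm at one to two leaves; preemergence pots received a directed soil spray. Soil was a loam–sand blend.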

kochia (Kochia scoparia) [2] = experiment: Test A preemergence, kochia; conditions: 0 to 100 scale (0 no effect, 100 complete control)
Summary of the method: as §1

[3] = test system: ragweed (common ragweed, Ambrosia elatior); experiment: Test A preemergence, ragweed; conditions: 0 to 100 scale (0 no effect, 100 complete control)
Summary of the method: as §1

[4] = test system: ryegrass, Italian (Lolium multiflorum); experiment: Test A preemergence, Italian ryegrass; conditions: 0 to 100 scale (0 no effect, 100 complete control)
Summary of the method: as §1

[5] = test system: foxtail, giant (Setaria faberii); experiment: Test A preemergence, giant foxtail; conditions: 0 to 100 scale (0 no effect, 100 complete control)
Summary of the method: as §1

[6] = test system: pigweed (Amaranthus retroflexus); experiment: Test A preemergence, pigweed; conditions: 0 to 100 scale (0 no effect, 100 complete control)
Summary of the method: as §1

[7] = test system: barnyardgrass (Echinochloa crus-galli); experiment: Test A postemergence, barnyardgrass; conditions: visual injury, 0 to 100 scale (0 no effect, 100 complete control), approximately 10 days
Summary of the method: as §1

kochia (Kochia scoparia) [8] = experiment: Test A postemergence, kochia; conditions: visual injury, 0 to 100 scale (0 no effect, 100 complete control), approximately 10 days
Summary of the method: as §1

[9] = test system: ragweed (common ragweed, Ambrosia elatior); experiment: Test A postemergence, ragweed; conditions: visual injury, 0 to 100 scale (0 no effect, 100 complete control), approximately 10 days
Summary of the method: as §1

[10] = test system: ryegrass, Italian (Lolium multiflorum); experiment: Test A postemergence, Italian ryegrass; conditions: visual injury, 0 to 100 scale (0 no effect, 100 complete control), approximately 10 days
Summary of the method: as §1

[11] = test system: foxtail, giant (Setaria faberii); experiment: Test A postemergence, giant foxtail; conditions: visual injury, 0 to 100 scale (0 no effect, 100 complete control), approximately 10 days
Summary of the method: as §1

[12] = test system: pigweed (Amaranthus retroflexus); experiment: Test A postemergence, pigweed; conditions: visual injury, 0 to 100 scale (0 no effect, 100 complete control), approximately 10 days
Summary of the method: as §1

[13] = test system: blackgrass (Alopecurus myosuroides); experiment: Test A postemergence, blackgrass; conditions: visual injury, 0 to 100 scale (0 no effect, 100 complete control), approximately 10 days
Summary of the method: as §1

[14] = test system: galium (catchweed bedstraw, Galium aparine); experiment: Test A postemergence, galium; conditions: visual injury, 0 to 100 scale (0 no effect, 100 complete control), approximately 10 days
Summary of the method: as §1

[15] = test system: wheat (Triticum aestivum); experiment: Test A postemergence, wheat; conditions: visual injury, 0 to 100 scale (0 no effect, 100 complete control), approximately 10 days
Summary of the method: as §1

corn (Zea mays) = experiment: Test A postemergence, corn; conditions: visual injury, 0 to 100 scale (0 no effect, 100 complete control), approximately 10 days
Summary of the method: as §1

rice (Oryza sativa) = experiment: Test B flooded paddy test, rice; conditions: applied to paddy water, visual rating after 13 to 15 days, scale 0 (no effect) to 100 (complete control)
Summary of the method: (§2)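 Test compounds are applied straight into paddy water held 3 cm above the soil surface, with that flood maintained for the whole test. After 13 to 15 days in the greenhouse, each species is scored visually relative to controls.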

[16] = test system: sedge, umbrella (small-flower umbrella sedge, Cyperus difformis); experiment: Test B flooded paddy test, umbrella sedge; conditions: applied to paddy water, visual rating after 13 to 15 days, scale 0 (no effect) to 100 (complete control)
Summary of the method: as §2

[17] = test system: ducksalad (Heteranthera limosa); experiment: Test B flooded paddy test, ducksalad; conditions: applied to paddy water, visual rating after 13 to 15 days, scale 0 (no effect) to 100 (complete control)
Summary of the method: as §2

[18] = test system: barnyardgrass (Echinochloa crus-galli); experiment: Test B flooded paddy test, barnyardgrass; conditions: applied to paddy water, visual rating after 13 to 15 days, scale 0 (no effect) to 100 (complete control)
Summary of the method: as §2

SMILES	Plant response rating, Barnyardgrass ([1]; 125 g ai/ha)	Plant response rating, Barnyardgrass ([1]; 500 g ai/ha)	Plant response rating, Kochia (kochia (Kochia scoparia) [2]; 500 g ai/ha)	Plant response rating, Ragweed ([3]; 125 g ai/ha)	Plant response rating, Ragweed ([3]; 500 g ai/ha)	Plant response rating, Ryegrass, Italian ([4]; 125 g ai/ha)	Plant response rating, Ryegrass, Italian ([4]; 500 g ai/ha)	Plant response rating, Foxtail, Giant ([5]; 125 g ai/ha)	Plant response rating, Foxtail, Giant ([5]; 500 g ai/ha)	Plant response rating, Pigweed ([6]; 125 g ai/ha)	Plant response rating, Pigweed ([6]; 500 g ai/ha)	Plant response rating, Barnyardgrass ([7]; 125 g ai/ha)	Plant response rating, Barnyardgrass ([7]; 500 g ai/ha)	Plant response rating, Kochia (kochia (Kochia scoparia) [8]; 125 g ai/ha)	Plant response rating, Kochia (kochia (Kochia scoparia) [8]; 500 g ai/ha)	Plant response rating, Ragweed ([9]; 125 g ai/ha)	Plant response rating, Ragweed ([9]; 500 g ai/ha)	Plant response rating, Ryegrass, Italian ([10]; 125 g ai/ha)	Plant response rating, Ryegrass, Italian ([10]; 500 g ai/ha)	Plant response rating, Foxtail, Giant ([11]; 125 g ai/ha)	also measured
O=C1NCC(c2cccc(Cn3ccc(C(F)(F)F)n3)c2)C1C(=O)Nc1ccc(F)c(F)c1F (centres unmarked) [Compound 22]	0	30	0	0	0	0	0	40	80	0	0	40	60	0	0	0	0	0	0	20	Plant response rating, Kochia (kochia (Kochia scoparia) [2]; 125 g ai/ha): 0; Plant response rating, Foxtail, Giant ([11]; 500 g ai/ha): 60; Plant response rating, Pigweed ([12]; 125 g ai/ha): 0; Plant response rating, Pigweed ([12]; 500 g ai/ha): 0; Plant response rating, Blackgrass ([13]; 125 g ai/ha): 0; Plant response rating, Blackgrass ([13]; 500 g ai/ha): 0; Plant response rating, Galium ([14]; 125 g ai/ha): 0; Plant response rating, Galium ([14]; 500 g ai/ha): 0; Plant response rating, Wheat ([15]; 125 g ai/ha): 0; Plant response rating, Wheat ([15]; 500 g ai/ha): 0; Plant response rating, Corn (corn (Zea mays); 125 g ai/ha): 0; Plant response rating, Corn (corn (Zea mays); 500 g ai/ha): 0; Plant response rating, Rice (Flood) (rice (Oryza sativa); 500 g ai/ha): 0; Plant response rating, Sedge, Umbrella (Flood) ([16]; 500 g ai/ha): 0; Plant response rating, Ducksalad (Flood) ([17]; 500 g ai/ha): 0; Plant response rating, Barnyardgrass (Flood) ([18]; 500 g ai/ha): 30
O=C1NCC(c2ccccc2Cn2ccc(C(F)(F)F)n2)C1C(=O)Nc1cccc(F)c1F (centres unmarked) [Compound 57]	40	90	0	0	0	0	0	60	90	0	0	0	60	0	20	0	30	0	0	40	Plant response rating, Foxtail, Giant ([11]; 500 g ai/ha): 70; Plant response rating, Pigweed ([12]; 125 g ai/ha): 0; Plant response rating, Pigweed ([12]; 500 g ai/ha): 20; Plant response rating, Blackgrass ([13]; 125 g ai/ha): 0; Plant response rating, Blackgrass ([13]; 500 g ai/ha): 30; Plant response rating, Galium ([14]; 125 g ai/ha): 0; Plant response rating, Galium ([14]; 500 g ai/ha): 20; Plant response rating, Wheat ([15]; 125 g ai/ha): 0; Plant response rating, Wheat ([15]; 500 g ai/ha): 0; Plant response rating, Corn (corn (Zea mays); 125 g ai/ha): 30; Plant response rating, Corn (corn (Zea mays); 500 g ai/ha): 30; Plant response rating, Rice (Flood) (rice (Oryza sativa); 250 g ai/ha): 0; Plant response rating, Sedge, Umbrella (Flood) ([16]; 250 g ai/ha): 0; Plant response rating, Ducksalad (Flood) ([17]; 250 g ai/ha): 0; Plant response rating, Barnyardgrass (Flood) ([18]; 250 g ai/ha): 0
